From patent publication US5389616A, “Amino acid derivatives” (Hoffman-LaRoche Inc., priority 1988, dated 1995)
pIC50: −log10 of the molar value.

Target: T1, human renin (Homo sapiens, UniProt P00797)
T1 sequence (P00797 67-406): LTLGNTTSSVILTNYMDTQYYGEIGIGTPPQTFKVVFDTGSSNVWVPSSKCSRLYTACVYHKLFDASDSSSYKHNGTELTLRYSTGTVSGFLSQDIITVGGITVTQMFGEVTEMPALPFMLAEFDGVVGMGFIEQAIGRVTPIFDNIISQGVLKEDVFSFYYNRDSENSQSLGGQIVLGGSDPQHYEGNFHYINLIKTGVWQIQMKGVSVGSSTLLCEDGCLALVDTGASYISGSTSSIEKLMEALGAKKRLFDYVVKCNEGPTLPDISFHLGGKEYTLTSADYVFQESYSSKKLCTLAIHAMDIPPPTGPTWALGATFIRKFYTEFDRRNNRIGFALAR
Test: In vitro test with pure human renin
Assay type: biochemical
Conditions: human tetradecapeptide renin substrate (hTD), pH 7.4, incubated 3 hours at 37° C. or 4° C., angiotensin I production measured via RIA
Procedure: In vitro test with pure human renin
The test is carried out in Eppendorf test tubes. The incubation mixture consists of (1) 100μl of human renin in buffer A (0.1M sodium phosphate solution, pH 7.4, containing 0.1% bovine serum albumin, 0.1% sodium azide and 1 mM ethylenediaminetetraacetic acid), sufficient for a renin activity of 2--3 ng of angiotensin I/ml/hr.; (2) 145 μl of buffer A; (3) 30 μl of 10 μM human tetradecapeptide renin substrate (hTD) in 10 mM hydrochloric acid; (4) 15 μl of dimethyl sulphoxide with or without inhibitor and (5) 10 μl of a 0.03 molar solution of hydroxyquinoline sulphate in water.
The samples are incubated for 3 hours at 37° C. or 4° C. in triplicate. 2 ×100 μl samples per experimental test tube are used in order to measure the production of angiotensin I via RIA (standard radioimmunoassay; clinical assay solid phase kit). Cross reactivities of the antibody used in the RIA are: angiotensin I 100%; angiotensin II 0.0013%; hTD (angiotensin I-Val-Ile-His-Ser-OH) 0.09%. The production of angiotensin I is determined by the difference between the experiment at 37° C. and that at 4° C.
The following controls are carried out:
(a) Incubation of hTD samples without renin and without inhibitor at 37° C. and 4° C. The difference between these two values gives the base value of angiotensin I production.
(b) Incubation of hTD samples with renin, but without inhibitor at 37° C. and 4° C. The difference between these values gives the maximal-value of angiotensin I production.
In each sample the base value of the angiotensin I production is subtracted from the angiotensin I production which is determined. The difference between the maximal value and the base value gives the value of the maximal substrate hydrolysis (=100%) by renin.
The results are given as IC50 values which denote that concentration of the inhibitor at which the enzymatic activity is inhibited by 50%. The IC50 values are determined from a linear regression curve from a logit-log plot.

pIC50	Structure (SMILES)
7.62	CCC(CC)C(O)[C@H](O)[C@H](CC1CCCCC1)NC(=O)[C@H](Cc1c[nH]cn1)NC(=O)[C@@H](CC(=O)C(C)(C)C)Cc1ccccc1 (mixture of isomers) [A, (S)-N-[(1S,2R,3RS)-1-(Cyclohexylmethyl)-4-ethyl-2,3-dihydroxyhexyl]-α-[(R)-α-(3,3-dimethyl-2-oxobutyl)hydrocinnamamido]imidazole-4-propionamide]
7.42	CC(C)(C)C(O)[C@H](O)[C@H](CC1CCCCC1)NC(=O)[C@H](Cc1c[nH]cn1)NC(=O)[C@H](Cc1ccccc1)CS(=O)(=O)C(C)(C)C (mixture of isomers) [F, (S)-α-[(S)-α-[(t-butylsulphonyl)methyl]hydrocinnamamido]-N-[(1S,2R,3RS)-1-(cyclohexylmethyl)-2,3-dihydroxy-4,4-dimethylpentyl]imidazole-4-propionamide]
9.00	CC(C)(C)C(=O)C[C@@H](Cc1ccccc1)C(=O)N[C@@H](Cc1c[nH]cn1)C(=O)N[C@@H](CC1CCCCC1)[C@@H](O)[C@@H](O)C1CCCCC1 [B, (S)-N-[(1S,2R,3S)-3-cyclohexyl-1-(cyclohexylmethyl)-2,3-dihydroxypropyl]-α-[(R)-α-(3,3-dimethyl-2-oxobutyl)-hydrocinnamamido]imidazole-4-propionamide]
8.52	CC(C)[C@H](O)[C@H](O)[C@H](CC1CCCCC1)NC(=O)[C@H](Cc1c[nH]cn1)NC(=O)[C@@H](CC(=O)C(C)(C)C)Cc1ccccc1 [C, (S)-N-[(1S,2R,3S)-1-(cyclohexylmethyl)-2,3-dihydroxy-4-methylpentyl]-α-[(R)-α-(3,3-dimethyl-2-oxobutyl)hydrocinnamamido]imidazole-4-propionamide]
8.15	CC(C)(C)S(=O)(=O)C[C@@H](Cc1ccccc1)C(=O)N[C@@H](Cc1c[nH]cn1)C(=O)N[C@@H](CC1CCCCC1)[C@@H](O)[C@@H](O)c1ccccc1 [D, (S)-α-[(S)-α-[(t-butylsulphonyl)methyl]hydrocinnamamido]-N-[(1S,2R,3S)-1-(cyclohexylmethyl)-2,3-dihydroxy-3-phenylpropyl]imidazole-4-propionamide]
6.77	CC(C)(C)S(=O)(=O)C[C@@H](Cc1ccccc1)C(=O)N[C@@H](Cc1c[nH]cn1)C(=O)N[C@@H](CC1CCCCC1)[C@@H](O)[C@H](O)c1ccccc1 [E, (S)-α-[(S)-α-[(t-butylsulphonyl)methyl]hydrocinnamamido]-N-[(1S,2R,3R)-1-(cyclohexylmethyl)-2,3-dihydroxy-3-phenylpropyl]imidazole-4-propionamide]
8.70	CC(C)[C@H](O)[C@H](O)[C@H](CC1CCCCC1)NC(=O)[C@H](Cc1c[nH]cn1)NC(=O)[C@H](Cc1ccccc1)CS(=O)(=O)C(C)(C)C [G, (S)-α-[(S)-α-[(t-butylsulphonyl)methyl]hydrocinnamamido]-N-[(1S,2R,3S)-1-(cyclohexylmethyl)-2,3-dihydroxy-4-methylpentyl]imidazole-4-propionamide]
8.70	CC(C)(C)S(=O)(=O)C[C@@H](Cc1ccccc1)C(=O)N[C@@H](Cc1c[nH]cn1)C(=O)N[C@@H](CC1CCCCC1)[C@@H](O)[C@@H](O)C1CCCCC1 [H, (S)-α-[(S)-α-[(t-butylsulphonyl)methyl]hydrocinnamamido]-N-[(1S,2R,3S)-3-cyclohexyl-1-(cyclohexylmethyl)-2,3-dihydroxypropyl]imidazole-4-propionamide]
